Measurements as given in patent US20030153506A1, “Combination product comprising melagatran and factor VIIa inhibitor” (priority 2000, published 2003).
One block for each compound: values may come before it.

What was measured:
Platelet poor plasma = experiment: APTT clotting time in spiked platelet poor plasma, synergy model (Berenbaum); assay type: biochemical, human; details: for concentration of A required to reach the same APTT prolongation as that of the mixture (Ae): calculated from Eq 1; for concentration of B required to reach the same APTT prolongation as that of the mixture (Be): calculated from Eq 2
Procedure: Human blood from healthy volunteers, both men and women, was collected in 50 mL conical plastic tubes containing 5 mL of 0.13 mol/L of buffered tri-sodium citrate. The blood was immediately chilled on ice and centrifuged at […] for 20 minutes. Platelet poor plasma was then divided into fractions of 10 mL each and “spiked” with melagatran (Compound A) or with the title compound of Example 1 above (Compound B) to a final concentration that prolonged APTT by approximately 20%, 40%, 60% and 100%, respectively.
APTT was determined as follows: 100 μL of pre-warmed APTT reagent (Stago Diagnostica) was added to 100 μL of pre-warmed plasma and incubated for 180 s at 37° C. Coagulation was initiated by the addition of 100 μL of CaCl2 (0.025 mol/L). The clotting time was measured with a KC 10 Coagulometer, coupled to a CR-A calculator, CR 10 printer and PR60 heat block (Amelung GmbH, Lemago Germany). Each clotting test was performed in duplicate and the mean clotting time was used.
APTT for Compound A and Compound B were tested at 4 different concentrations and the results are shown in Table 1, in which Cp A and Cp B are the plasma concentrations of Compounds A and B, respectively. APTT values are expressed in seconds and, within brackets, as percentage prolongation over the baseline value.
In order to test a possible synergistic effect between Compounds A and B the following model was used. The concentrations of Compounds A and B that caused about 20%, 40% and 60% prolongation of APTT were first determined (Table 1). Equipotent concentrations of Compounds A and B, e.g. 0.08 μmol/L of A and 1.5 μmol/L of B, were then mixed and APTT for the mixtures were determined as above. An indication of synergy is obtained if APTT for this mixture is longer than APTT for a “mixture” of equipotent concentrations of Compound A itself (i.e. Compound A+Compound A at a concentration that prolongs APTT by 20% (0.08 μmol/L+0.08 μmol/L=0.16 μmol/L)). However, a true synergistic effect between two compounds can never be established unless the dose response curves for both individual compounds are known and all data applied to the algebraic model of Berenbaum's equation (see Clin. Exp. Immunol. (1977) 28, 18): […]
(Cp A in mixture/Ae)+(Cp B in mixture/Be)<1
In this equation, CpA and CpB are the plasma concentrations of Compounds A and B, respectively in the mixture, and Ae and Be are individual concentrations of Compounds A and B that are required to obtain the same APTT results as that of the mixture. These concentrations can be calculated from the linear dose-responses for Compounds A and B, respectively (Equations 1 and 2).

human plasma = experiment: Test C: prothrombin time (PT) assay; assay type: biochemical; details: Thromborel S, doubling of the clotting time
Procedure: Prothrombin Time (PT) Assay
The following reagents were prepared: An aliquot of a frozen human plasma pool, containing citrate as an anticoagulant, was rapidly thawed at 37° C. A 10 mM stock solution of the inhibitor in DMSO was diluted with saline containing 0.1% BSA to a final 1% of DMSO. Series dilutions were made in steps of 1:3 for a dose response titration. Thromborel® S from Dade Behring GmbH (Marburg, Germany), was reconstituted 1:10 with 25 mM CaCl2, according to the instructions of the manufacturer. 2.5μL of inhibitor was mixed with 22.5 μL human plasma, incubated for 1 min. at 37° C. in the cup of an Amelung KC10 microcoagulometer from Heinrich Amelung GmbH (Lemgo, Germany). Coagulation was initiated by addition of 50 μL Thromborel S, which was pre-warmed at 37° C. The time to clot was determined (CTI) for each inhibitor concentration ([I]) in duplo. A titration curve was made by plotting the inverse clotting time versus the inhibitor concentration. The IC50 value, the time to double the clotting time, was determined by non-linear regression to the equation:
CT0/CTI=1/(1+([I]/IC50)^S)
where “CT0”=the clotting time without inhibitor added, and “s” the slope.

Human α-thrombin = molecular target: T1, Human α-thrombin (Homo sapiens, UniProt P00734); experiment: Test B: thrombin inhibition, chromogenic robotic assay; assay type: biochemical; details: S-2366 0.30 mmol/L, 40 min 37° C.
T1 construct: Human α-thrombin, Sigma Chemical Co. or Hematologic Technologies; purchased Sigma Chemical Co. or Hematologic Technologies
Procedure: Determination of Thrombin Inhibition with a Chromogenic, Robotic Assay
Thrombin inhibitor potency was measured with a chromogenic substrate method, in a Plato 3300 robotic microplate processor (Rosys AG, CH-8634 Hombrechtikon, Switzerland), using 96-well, half volume microtitre plates (Costar, Cambridge, Mass., U.S.A.; Cat No 3690). Stock solutions of test substance in DMSO (72 μL), 0.1-1 mmol/L, were diluted serially 1:3 (24+48 μL) with DMSO to obtain ten different concentrations, which were analysed as samples in the assay. 2 μL of test sample was diluted with 124 μL assay buffer, 12 μL of chromogenic substrate solution (S-2366, Chromogenix, Mölndal, Sweden) in assay buffer and finally 12 μL of α-thrombin solution (Human α-thrombin, Sigma Chemical Co. or Hematologic Technologies) in assay buffer, were added, and the samples mixed. The final assay concentrations were: test substance 0.00068-13.3 μmol/L, S-2366 0.30 mmol/L, α-thrombin 0.020 NIHU/mL. The linear absorbance increment during 40 minutes incubation at 37° C. was used for calculation of percentage inhibition for the test samples, as compared to blanks without inhibitor. The IC50-robotic value, corresponding to the inhibitor concentration which causes 50% inhibition of the thrombin activity, was calculated from a log concentration vs. % inhibition curve.

[1] = molecular target: T2, Recombinant human factor VIIa (Homo sapiens, UniProt P08709); experiment: Test A: chromogenic robot method for Factor VIIa; assay type: biochemical
T2 construct: Recombinant human factor VIIa (rFVIIa, product no 407); purchased American Diagnostica Inc. product no 407 (rFVIIa); product no 4500 (rTF)
T2 sequence (P08709 213-466 limits assumed): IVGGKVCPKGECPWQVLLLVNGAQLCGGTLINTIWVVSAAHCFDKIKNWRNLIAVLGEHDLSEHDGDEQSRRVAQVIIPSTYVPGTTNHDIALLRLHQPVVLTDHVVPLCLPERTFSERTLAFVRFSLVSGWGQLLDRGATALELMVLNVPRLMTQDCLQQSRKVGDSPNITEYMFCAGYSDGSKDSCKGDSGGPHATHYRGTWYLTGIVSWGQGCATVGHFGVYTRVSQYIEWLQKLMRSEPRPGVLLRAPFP
T2 sequence (P08709 61-212 limits assumed): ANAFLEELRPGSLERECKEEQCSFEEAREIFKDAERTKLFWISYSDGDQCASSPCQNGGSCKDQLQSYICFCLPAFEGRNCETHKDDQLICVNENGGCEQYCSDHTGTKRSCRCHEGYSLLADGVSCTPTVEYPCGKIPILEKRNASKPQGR
T2 sequence (P13726 33-295 partner): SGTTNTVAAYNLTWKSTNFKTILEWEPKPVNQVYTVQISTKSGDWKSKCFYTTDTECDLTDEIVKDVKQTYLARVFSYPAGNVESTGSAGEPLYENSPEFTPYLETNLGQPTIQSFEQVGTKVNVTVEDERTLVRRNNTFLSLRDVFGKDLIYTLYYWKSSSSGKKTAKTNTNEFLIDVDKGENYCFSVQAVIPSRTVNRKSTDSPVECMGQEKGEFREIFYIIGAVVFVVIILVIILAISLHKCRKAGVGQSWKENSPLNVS
Procedure: Chromogenic Robot Method for Factor VIIa:
The chromogenic substrate Spectrozyme FVIIa, CH3SO2-D-CHA-But-Arg-pNA (pefachrome 5979 from Pentapharm, Switzerland) was purchased from American-Diagnostica Inc. (Greenwich, Conn., U.S.A.). The KM under the conditions of the assay was determined separately. Recombinant human factor VIIa (rFVIIa, product no 407) and non-lipidated recombinant human tissue-factor (rTF, product no 4500) were purchased from American Diagnostica Inc. The stock solutions of rFVIIa (1.08 mg protein dissolved with 1 mL water to 21.6 μM in 20 mM Tris-HCl, 100 mM NaCl, pH 7.4) and rTF (1 mg protein with 1.5 mL water to 19 μM in 50 mM Tris-HCl, pH 8.0, 150 mM NaCl, CHAPS (3-((3-cholamidopropyl)dimethylammoniol)-1-propanesulphonate; 10 mM) and 200 mM mannitol) were stored in 0.5 mL reagent tubes at −80° C. […] After mixing and incubation for 40 minutes at 37° C., the optical absorbance difference was read at 405 nm. The IC50 value for each compound was calculated by non-linear regression to the equation:
Where AI=the final absorbance at 405 nm in the presence of the inhibitor, A0=in the absence of inhibitor, and s the slope in the dose titration curve, which has the theoretical value of 1 for a pure competitive inhibitor. […]

[2] = mixture 0.08 (A) + 1.5 (B) μmol/L
[3] = mixture 0.18 (A) + 3.2 (B) μmol/L
[4] = mixture 0.27 (A) + 4.9 (B) μmol/L

Structure (SMILES): N=C(N)c1ccc(CNC(=O)[C@@H]2CCN2C(=O)[C@H](NCC(=O)O)C2CCCCC2)cc1 [Compound A, HOOC—CH2—(R)Cgl-Aze-Pab-H]
APTT (Platelet poor plasma; Compound A + A, 0.08 + 0.08 = 0.16 μmol/L): 51.8 s
APTT (Platelet poor plasma; Compound A + A, 0.18 + 0.18 = 0.36 μmol/L): 62.4 s
APTT (Platelet poor plasma; Compound A + A, 0.27 + 0.27 = 0.54 μmol/L): 71.9 s
APTT percentage prolongation over the baseline value (Platelet poor plasma; Cp A 0.08 μmol/L): 24%
APTT (Platelet poor plasma; Cp A 0.08 μmol/L, baseline 36.8 s): 45.8 s
APTT percentage prolongation over the baseline value (Platelet poor plasma; Cp A 0.18 μmol/L): 46%
APTT (Platelet poor plasma; Cp A 0.18 μmol/L, baseline 36.8 s): 53.8 s
APTT percentage prolongation over the baseline value (Platelet poor plasma; Cp A 0.27 μmol/L): 61%
APTT (Platelet poor plasma; Cp A 0.27 μmol/L, baseline 36.8 s): 59.2 s
APTT percentage prolongation over the baseline value (Platelet poor plasma; Cp A 0.56 μmol/L): 96%
APTT (Platelet poor plasma; Cp A 0.56 μmol/L, baseline 36.8 s): 72.1 s
concentration of A required to reach the same APTT prolongation as that of the mixture (Ae) (Platelet poor plasma; [2]): 0.21 µmol/L
concentration of A required to reach the same APTT prolongation as that of the mixture (Ae) (Platelet poor plasma; [3]): 0.53 µmol/L
concentration of A required to reach the same APTT prolongation as that of the mixture (Ae) (Platelet poor plasma; [4]): 0.83 µmol/L

IC50 (human plasma): 3.8 µM
IC50 (Human α-thrombin): 6.2 µM
IC50 ([1]; Test A, rFVIIa-rTF, Spectrozyme FVIIa 0.2 mM, 40 min 37° C.): 0.064 µM
selectivity for Factor VIIa ([1]; conclusion from Tests A, B and C): selective inhibitor of Factor VIIa
Structure (SMILES): CC(C)C[C@H](NC(=O)[C@H](NS(=O)(=O)Cc1cccc(C(=O)O)c1)C(C)C)C(=O)NCc1ccc(C(=N)N)cc1 [Example 1, N-[(3-Carboxybenzyl)sulfonyl]-D-valyl-N^1-{4-[amino(imino)methyl]-benzyl}-L-leucinamide]
APTT percentage prolongation over the baseline value (Platelet poor plasma; Cp B 1.50 μmol/L): 26%
APTT (Platelet poor plasma; Cp B 1.50 μmol/L, baseline 35.7 s): 45.2 s
APTT percentage prolongation over the baseline value (Platelet poor plasma; Cp B 3.20 μmol/L): 44%
APTT (Platelet poor plasma; Cp B 3.20 μmol/L, baseline 35.7 s): 51.5 s
APTT percentage prolongation over the baseline value (Platelet poor plasma; Cp B 4.90 μmol/L): 62%
APTT (Platelet poor plasma; Cp B 4.90 μmol/L, baseline 35.7 s): 57.7 s
APTT percentage prolongation over the baseline value (Platelet poor plasma; Cp B 8.30 μmol/L): 105%
APTT (Platelet poor plasma; Cp B 8.30 μmol/L, baseline 35.7 s): 73.3 s
concentration of B required to reach the same APTT prolongation as that of the mixture (Be) (Platelet poor plasma; [2]): 3.87 µmol/L
concentration of B required to reach the same APTT prolongation as that of the mixture (Be) (Platelet poor plasma; [3]): 7.98 µmol/L
concentration of B required to reach the same APTT prolongation as that of the mixture (Be) (Platelet poor plasma; [4]): 11.80 µmol/L
